Results published in patent USRE49080E1, “Glycoside derivatives and uses thereof” (Novartis AG, priority 2009, dated 2022).

Key:
[1] = molecular target: human sodium glucose co-transporter 2 (Homo sapiens (Human), UniProt P31639); assay: SGLT-2 assay: 14C-AMG uptake in CHO-hSGLT2 or HEK-hSGLT2 cells; assay type: cell-based; conditions: n = 1-4, cells stably transfected with hSGLT2, read-out: SGLT2 IC50 nM (n = 1-4)
Procedure: These cell lines transport 14 C-labelled alpha-methyl-glucopyranoside (14 C-AMG, Amersham) into the interior of the cell in sodium-dependent manner.
(§1) The SGLT-2 assay is carried out as follows: CHO-hSGLT2 cells are cultivated in Ham's F12 Medium (BioWhittaker) with 10% foetal calf serum and 250 μg/mL zeocin (Invitrogen), and HEK293-hSGLT2 cells are cultivated in DMEM medium with 10% foetal calf serum and 250 μg/mL zeocin (Invitrogen). The cells are detached from the culture flasks by washing twice with PBS and subsequently treating with trypsin/EDTA. After the addition of cell culture medium the cells are centrifuged, resuspended in culture medium and counted in a Casy cell counter. Then 40,000 cells per well are seeded into a white, 96-well plate coated with poly-D-lysine and incubated overnight at 37° C., 5% CO2. The cells are washed twice with 250 μl of assay buffer (Hanks Balanced Salt Solution, 137 mM NaCl, 5.4 mM KCl, 2.8 mM CaCl2, 1.2 mM MgSO4 and 10 mM HEPES (pH 7.4), 50 μg/mL of gentamycin). 250 μl of assay buffer and 5 μl of test compound are then added to each well and the plate is incubated for a further 15 minutes in the incubator. 5 μl of 10% DMSO are used as the negative control. The reaction is started by adding 5 μl of 14 C-AMG (0.05 μCi) to each well. After 2 hours' incubation at 37° C., 5% CO2, the cells are washed again with 250 μl of PBS […] and then lysed by the addition of 25 μl of 0.1 N NaOH (5 min. at 37° C.). 200 μl of MicroScint20 (Packard) are added to each well and incubation is continued for a further 20 min at 37° C. After this incubation the radioactivity of the 14 C-AMG absorbed is measured in a Topcount (Packard) using a 14 C scintillation program.

[2] = molecular target: human SGLT1 (Homo sapiens (Human), UniProt P13866); assay: SGLT1 assay: analogous test with hSGLT1 cDNA expressed in CHO-K1 or HEK293 cells; assay type: cell-based; conditions: n = 1-4; 14C-AMG uptake, cells expressing hSGLT1
human SGLT1, sequence (P13866 whole entry): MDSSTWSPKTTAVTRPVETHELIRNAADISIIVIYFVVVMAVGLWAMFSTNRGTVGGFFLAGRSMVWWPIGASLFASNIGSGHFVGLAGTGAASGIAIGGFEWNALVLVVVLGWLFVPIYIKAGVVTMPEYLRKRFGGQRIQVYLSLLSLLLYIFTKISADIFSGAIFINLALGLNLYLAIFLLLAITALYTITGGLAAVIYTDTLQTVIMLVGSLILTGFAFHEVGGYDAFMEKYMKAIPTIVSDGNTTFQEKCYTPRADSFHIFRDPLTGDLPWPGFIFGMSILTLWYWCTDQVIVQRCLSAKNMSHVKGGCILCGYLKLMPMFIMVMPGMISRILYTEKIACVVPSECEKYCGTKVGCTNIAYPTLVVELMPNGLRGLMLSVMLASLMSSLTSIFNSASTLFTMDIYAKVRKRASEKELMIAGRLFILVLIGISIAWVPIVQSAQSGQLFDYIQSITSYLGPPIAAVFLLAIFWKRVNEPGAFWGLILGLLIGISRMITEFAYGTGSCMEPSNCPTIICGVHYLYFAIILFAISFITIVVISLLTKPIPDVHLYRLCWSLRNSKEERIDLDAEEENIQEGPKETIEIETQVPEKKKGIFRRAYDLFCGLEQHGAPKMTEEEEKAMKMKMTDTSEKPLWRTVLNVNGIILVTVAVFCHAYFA
Procedure: as §1
To determine the selectivity with respect to human SGLT1 an analogous test is set up in which the cDNA for hSGLTI (Genbank Ace. No. NM000343) instead of hSGLT2 cDNA is expressed in CHO-K1 or HEK293 cells.

human sodium glucose co-transporter 2, sequence (P31639 whole entry): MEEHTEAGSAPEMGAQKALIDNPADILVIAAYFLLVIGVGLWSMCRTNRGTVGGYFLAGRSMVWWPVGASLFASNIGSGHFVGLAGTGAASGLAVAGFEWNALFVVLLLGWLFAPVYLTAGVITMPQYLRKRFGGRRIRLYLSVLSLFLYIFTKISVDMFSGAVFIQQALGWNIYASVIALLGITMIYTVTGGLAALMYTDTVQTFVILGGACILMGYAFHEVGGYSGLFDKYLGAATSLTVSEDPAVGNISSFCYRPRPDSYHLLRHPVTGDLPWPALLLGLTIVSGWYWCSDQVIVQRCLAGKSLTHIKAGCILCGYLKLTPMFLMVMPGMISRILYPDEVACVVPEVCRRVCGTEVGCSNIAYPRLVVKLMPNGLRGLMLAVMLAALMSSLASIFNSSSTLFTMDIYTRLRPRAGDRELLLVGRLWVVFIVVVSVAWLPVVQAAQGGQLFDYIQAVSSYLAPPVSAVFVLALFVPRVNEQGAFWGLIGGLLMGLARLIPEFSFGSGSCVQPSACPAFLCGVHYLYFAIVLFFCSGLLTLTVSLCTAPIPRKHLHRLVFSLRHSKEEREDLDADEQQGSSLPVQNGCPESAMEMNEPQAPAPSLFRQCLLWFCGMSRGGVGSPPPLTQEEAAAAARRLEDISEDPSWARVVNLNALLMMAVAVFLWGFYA

SMILES | IC50 [1] | IC50 [2]
CCN1CCOc2cc(Cc3cc([C@@H]4O[C@H](CO)[C@@H](O)[C@H](O)[C@H]4O)ccc3Cl)ccc21 [Example 2, (2S,3R,4R,5S,6R)-2-[4-Chloro-3-(4-ethyl-3,4-dihydro-2H-benzo[1,4]oxazin-7-ylmethyl)-phenyl]-6-hydroxymethyl-tetrahydro-pyran-3,4,5-triol] | 11.1 nM | 2500 nM
OC[C@H]1O[C@@H](c2ccc(OC(F)(F)F)c(Cc3ccc4c(c3)CCCO4)c2)[C@H](O)[C@@H](O)[C@@H]1O [Example 33, (2S,3R,4R,5S,6R)-2-(3-Chroman-6-ylmethyl-4-trifluoromethoxy-phenyl)-6-hydroxymethyl-tetrahydro-pyran-3,4,5-triol] | 11 nM | 157 nM
OC[C@H]1O[C@@H](c2ccc(Cl)c(Cc3ccc4c(c3)CCCO4)c2)[C@H](O)[C@@H](O)[C@@H]1O [Example 21, (2S,3R,4R,5S,6R)-2-(4-Chloro-3-chroman-6-ylmethyl-phenyl)-6-hydroxymethyl-tetrahydro-pyran-3,4,5-triol] | 0.2 nM | 1100 nM
CC1(C)CNc2cc(Cc3cc([C@@H]4O[C@H](CO)[C@@H](O)[C@H](O)[C@H]4O)ccc3Cl)ccc2O1 [Example 20, (2S,3R,4R,5S,6R)-2-[4-Chloro-3-(2,2-dimethyl-3,4-dihydro-2H-benzo[1,4]oxazin-6-ylmethyl)-phenyl]-6-hydroxymethyl-tetrahydro-pyran-3,4,5-triol] | 0.55 nM | > 3700 nM
CC(C)c1ccc([C@@H]2O[C@H](CO)[C@@H](O)[C@H](O)[C@H]2O)cc1Cc1ccc2c(c1)NCCC2 [Example 71, (2R,3S,4R,5R,6S)-2-Hydroxymethyl-6-[4-isopropyl-3-(1,2,3,4-tetrahydro-quinolin-7-ylmethyl)-phenyl]-tetrahydro-pyran-3,4,5-triol] | 1.5 nM | 19 nM
COc1ccc(CN2CCCc3cc(Cc4cc([C@@H]5O[C@H](CO)[C@@H](O)[C@H](O)[C@H]5O)ccc4Cl)ccc32)cc1 [Example 14, (2S,3R,4R,5S,6R)-2-{4-Chloro-3-[1-(4-methoxy-benzyl)-1,2,3,4-tetrahydro-quinolin-6-ylmethyl]-phenyl}-6-hydroxymethyl-tetrahydro-pyran-3,4,5-triol] | 5.5 nM | 800 nM
OC[C@H]1O[C@@H](c2ccc(Cl)c(Cc3ccc4c(c3)CCCN4)c2)[C@H](O)[C@@H](O)[C@@H]1O [Example 15, (2S,3R,4R,5S,6R)-2-[4-Chloro-3-(1,2,3,4-tetrahydro-quinolin-6-ylmethyl)-phenyl]-6-hydroxymethyl-tetrahydro-pyran-3,4,5-triol] | 0.2 nM | 650 nM
O=C1COc2cc(Cc3cc([C@@H]4O[C@H](CO)[C@@H](O)[C@H](O)[C@H]4O)ccc3Cl)ccc2N1 [Example 42, 7-[2-Chloro-5-((2S,3R,4R,5S,6R)-3,4,5-trihydroxy-6-hydroxymethyl-tetrahydro-pyran-2-yl)-benzyl]-4H-benzo[1,4]oxazin-3-one] | 0.35 nM | 105 nM
O=C1CCOc2ccc(Cc3cc([C@@H]4O[C@H](CO)[C@@H](O)[C@H](O)[C@H]4O)ccc3Cl)cc21 [Example 35, 6-[2-Chloro-5-((2S,3R,4R,5S,6R)-3,4,5-trihydroxy-6-hydroxymethyl-tetrahydro-pyran-2-yl)-benzyl]-chroman-4-one] | 9.5 nM | 1100 nM
OC[C@H]1O[C@@H](c2ccc(Cl)c(Cc3ccc4c(c3)NCCC4)c2)[C@H](O)[C@@H](O)[C@@H]1O [Example 16, (2S,3R,4R,5S,6R)-2-[4-Chloro-3-(1,2,3,4-tetrahydro-quinolin-7-ylmethyl)-phenyl]-6-hydroxymethyl-tetrahydro-pyran-3,4,5-triol] | 0.15 nM | 750 nM
CC1(C)Oc2ccc(Cc3cc([C@@H]4O[C@H](CO)[C@@H](O)[C@H](O)[C@H]4O)ccc3Cl)cc2NC1=O [Example 46, 6-[2-Chloro-5-((2S,3R,4R,5S,6R)-3,4,5-trihydroxy-6-hydroxymethyl-tetrahydro-pyran-2-yl)-benzyl]-2,2-dimethyl-4H-benzo[1,4]oxazin-3-one] | 14 nM | > 3900 nM
COc1ccc([C@@H]2O[C@H](CO)[C@@H](O)[C@H](O)[C@H]2O)cc1Cc1ccc2c(c1)CCC1(CCC1)O2 [Example 41, (2S,3R,4R,5S,6R)-2-[4-methoxy-3-(spiro[chromane-2,1′-cyclobutane]-6-ylmethyl)phenyl]-6-(hydroxymethyl)tetrahydropyran-3,4,5-triol] | 16.2 nM | 1620 nM
CCc1ccc([C@@H]2O[C@H](CO)[C@@H](O)[C@H](O)[C@H]2O)cc1Cc1ccc2c(c1)NCCO2 [Example 66, (2S,3R,4R,5S,6R)-2-[3-(3,4-Dihydro-2H-benzo[1,4]oxazin-6-ylmethyl)-4-ethyl-phenyl]-6-hydroxymethyl-tetrahydro-pyran-3,4,5-triol] | 0.9 nM | 100 nM
COc1ccc([C@@H]2O[C@H](CO)[C@@H](O)[C@H](O)[C@H]2O)cc1Cc1ccc2c(c1)OCC(=O)N2 [Example 43, 7-[2-Methoxy-5-((2S,3R,4R,5S,6R)-3,4,5-trihydroxy-6-hydroxymethyl-tetrahydro-pyran-2-yl)-benzyl]-4H-benzo[1,4]oxazin-3-one] | 3.9 nM | 59 nM
OC[C@H]1O[C@@H](c2ccc(Cl)c(Cc3ccc4c(c3)NCCO4)c2)[C@H](O)[C@@H](O)[C@@H]1O [Example 8, (2S,3R,4R,5S,6R)-2-[4-Chloro-3-(3,4-dihydro-2H-benzo[1,4]oxazin-6-ylmethyl)-phenyl]-6-hydroxymethyl-tetrahydro-pyran-3,4,5-triol] | 0.25 nM | 725 nM
CC(C)c1ccc([C@@H]2O[C@H](CO)[C@@H](O)[C@H](O)[C@H]2O)cc1Cc1ccc2c(c1)NCCO2 [Example 69, (2S,3R,4R,5S,6R)-2-[3-(3,4-Dihydro-2H-benzo[1,4]oxazin-6-ylmethyl)-4-isopropyl-phenyl]-6-hydroxymethyl-tetrahydro-pyran-3,4,5-triol] | 1.2 nM | 37 nM
CN1CCOc2cc(Cc3cc([C@@H]4O[C@H](CO)[C@@H](O)[C@H](O)[C@H]4O)ccc3Cl)ccc21 [Example 1, (2S,3R,4R,5S,6R)-2-[4-Chloro-3-(4-methyl-3,4-dihydro-2H benzo[1,4]oxazin-7-ylmethyl)-phenyl]-6-hydroxymethyl-tetrahydro-pyran-3,4,5-triol] | 2.7 nM | 655 nM
OC[C@H]1O[C@@H](c2ccc(Cl)c(Cc3ccc4c(c3)OCCN4)c2)[C@H](O)[C@@H](O)[C@@H]1O [Example 28, (2S,3R,4R,5S,6R)-2-[4-Chloro-3-(3,4-dihydro-2H-benzo[1,4]oxazin-7-ylmethyl)-phenyl]-6-hydroxymethyl-tetrahydro-pyran-3,4,5-triol] | 0.33 nM | 1000 nM
O=C1COc2ccc(Cc3cc([C@@H]4O[C@H](CO)[C@@H](O)[C@H](O)[C@H]4O)ccc3Cl)cc2N1 [Example 47, 6-(2-chloro-5-((2S,3R,4R,5S,6R)-3,4,5-trihydroxy-6-(hydroxymethyl)tetrahydro-2H-pyran-2-yl)benzyl)-2H-benzo[b][1,4]oxazin-3(4H)-one] | 16.5 nM | > 3200 nM
COc1ccc([C@@H]2O[C@H](CO)[C@@H](O)[C@H](O)[C@H]2O)cc1Cc1ccc2c(c1)OCCO2 [Example 25, (2S,3R,4R,5S,6R)-2-[3-(2,3-Dihydro-benzo[1,4]dioxin-6-ylmethyl)-4-methoxy-phenyl]-6-hydroxymethyl-tetrahydro-pyran-3,4,5-triol] | 1.5 nM | 40 nM
OC[C@H]1O[C@@H](c2ccc(F)c(Cc3ccc4c(c3)NCCO4)c2)[C@H](O)[C@@H](O)[C@@H]1O [Example 24, (2S,3R,4R,5S,6R)-2-[3-(3,4-Dihydro-2H-benzo[1,4]oxazin-6-ylmethyl)-4-fluoro-phenyl]-6-hydroxymethyl-tetrahydro-pyran-3,4,5-triol] | 1.3 nM | 31000 nM
